Ends that are not written are not given here.
System: interpubic ligament
Experiment: murine pubic symphysis assay (MPS)
Type: in vivo, mice
Conditions: for biological activity in the MPS assay (biological dose response comparison): estradiol-primed female mice, subcutaneous injection, ligament measured 18-20 hours later
Description: The human relaxin and human relaxin analogs were tested in bioassays. The murine pubic symphysis assay (MPS) uses Charles River albino CFW female mice weighing 18-20 g., J. St. Louis, Can. J. Physiol. Pharmacol. 59, 507-512 (1981). Estradiol priming solution is 5 μg estradiol 17β-cyclopentylpropionate in 0.1 ml peanut oil. Human relaxin dose solutions are at concentrations of 2.5, 5.0, 10.0, 20.0, 40.0, and 80.0 μg/ml in a 1% water solution of benzopurpurine 4B. When mice have been housed for at least six days in quarantine and weigh 18-20 g, each one is given a subcutaneous injection of estradiol priming solution. Exactly seven days later mice are injected subcutaneously with 0.2 ml of the appropriate human relaxin dose solution. Between 18 and 20 hours after the human relaxin injection the mice were sacrificed by cervical dislocation. The interpubic ligament is exposed and measured with a micrometer.
The rat uterine contractility in vitro bioassay measures human relaxin ability to relax smooth muscle in the presence of electrically stimulated contractions, J. St. Louis, (1981) Can. J. Physiol. Pharmacol. 59, 507-512. The murine pubic symphysis ligament in vivo bioassay measures relaxin's remodeling effect on connective tissue, Steinetz, B. G. et al. (1960) Endocrinology 67, 102. […] The MPS does responses indicate equipotence for natural human relaxin and H2(B2-33 A24) B Lys^4 B Ala^25, FIG. 3. […] All of the human analogues and natural sequence human relaxin are essentially indistinguishable in the MPS bioassay.

Molecule	biological activity in the MPS assay (biological dose response comparison)	MPS dose response curve, slope / parallelism relative to the other relaxins (mouse, in vivo)
CC[C@H](C)[C@@H]1NC(=O)[C@H](C)NC(=O)[C@H]([C@@H](C)CC)NC(=O)[C@H](CCC(N)=O)NC(=O)[C@H](C)NC(=O)[C@H](CCCNC(=N)N)NC(=O)[C@H](C(C)C)NC(=O)[C@H](CC(C)C)NC(=O)[C@H](CCC(=O)O)NC(=O)[C@H](CCCNC(=N)N)NC(=O)CNC(=O)[C@@H](NC(=O)[C@H](CC(C)C)NC(=O)[C@H](CCCCN)NC(=O)[C@@H](NC(=O)[C@@H](NC(=O)[C@H](CCC(=O)O)NC(=O)[C@H](CCC(=O)O)NC(=O)[C@H](CCCCN)NC(=O)[C@H](Cc2c[nH]c3ccccc23)NC(=O)[C@@H](N)CO)C(C)C)[C@@H](C)CC)CSSC[C@@H]2NC(=O)[C@@H](NC(=O)[C@H](CCCCN)NC(=O)[C@H](CC(N)=O)NC(=O)[C@H](C)NC(=O)[C@H](CC(C)C)NC(=O)[C@H](C)NC(=O)[C@H](CO)NC(=O)[C@H](Cc3ccc(O)cc3)NC(=O)[C@H](CC(C)C)NC(=O)[C@@H]3CCC(=O)N3)CSSC[C@H](NC(=O)CNC(=O)[C@H](C(C)C)NC(=O)[C@H](Cc3c[nH]cn3)NC2=O)C(=O)N[C@@H]([C@@H](C)O)C(=O)N[C@@H](CCCCN)C(=O)N[C@@H](CCCNC(=N)N)C(=O)N[C@@H](CO)C(=O)N[C@@H](CC(C)C)C(=O)N[C@@H](C)C(=O)N[C@@H](CCCNC(=N)N)C(=O)N[C@@H](Cc2ccccc2)C(=O)N[C@H](C(=O)O)CSSC[C@@H](C(=O)NCC(=O)N[C@@H](C)C(=O)N[C@@H](CO)C(=O)N[C@H](C(=O)N[C@@H](Cc2c[nH]c3ccccc23)C(=O)N[C@@H](CO)C(=O)N[C@@H](CCCCN)C(=O)N[C@@H](CCCNC(=N)N)C(=O)N[C@@H](CO)C(=O)N[C@@H](CC(C)C)C(=O)O)[C@@H](C)O)NC1=O	biological activity	
CC[C@H](C)[C@@H]1NC(=O)[C@H](C)NC(=O)[C@H]([C@@H](C)CC)NC(=O)[C@H](CCC(N)=O)NC(=O)[C@H](C)NC(=O)[C@H](CCCNC(=N)N)NC(=O)[C@H](C(C)C)NC(=O)[C@H](CC(C)C)NC(=O)[C@H](CCC(=O)O)NC(=O)[C@H](CCCNC(=N)N)NC(=O)CNC(=O)[C@@H](NC(=O)[C@H](CC(C)C)NC(=O)[C@H](CCCCN)NC(=O)[C@@H](NC(=O)[C@@H](NC(=O)[C@H](CCC(=O)O)NC(=O)[C@H](CCC(=O)O)NC(=O)[C@H](CCCCN)NC(=O)[C@H](Cc2c[nH]c3ccccc23)NC(=O)[C@H](CO)NC(=O)[C@@H](N)CC(=O)O)C(C)C)[C@@H](C)CC)CSSC[C@@H]2NC(=O)[C@@H](NC(=O)[C@H](CCCCN)NC(=O)[C@H](CC(N)=O)NC(=O)[C@H](C)NC(=O)[C@H](CC(C)C)NC(=O)[C@H](C)NC(=O)[C@H](CO)NC(=O)[C@H](Cc3ccc(O)cc3)NC(=O)[C@H](CC(C)C)NC(=O)[C@@H]3CCC(=O)N3)CSSC[C@H](NC(=O)CNC(=O)[C@H](C(C)C)NC(=O)[C@H](Cc3c[nH]cn3)NC2=O)C(=O)N[C@@H]([C@@H](C)O)C(=O)N[C@@H](CCCCN)C(=O)N[C@@H](CCCNC(=N)N)C(=O)N[C@@H](CO)C(=O)N[C@@H](CC(C)C)C(=O)N[C@@H](C)C(=O)N[C@@H](CCCNC(=N)N)C(=O)N[C@@H](Cc2ccccc2)C(=O)N[C@H](C(=O)O)CSSC[C@@H](C(=O)NCC(=O)N[C@@H](C)C(=O)N[C@@H](CO)C(=O)N[C@H](C(=O)N[C@@H](Cc2c[nH]c3ccccc23)C(=O)N[C@@H](CO)C(=O)N[C@@H](CCCCN)C(=O)N[C@@H](CCCNC(=N)N)C(=O)N[C@@H](CO)C(=O)N[C@@H](CC(C)C)C(=O)O)[C@@H](C)O)NC1=O	biological activity	
porcine relaxin: Porcine relaxin, used for the standard curve in the RUC assay and compared in MPS (Relaxin B chain QSTNDFIKACGRELVRLWVEICGSVSWGRTAL; Relaxin A chain RMTLSEKCCQVGCIRKDIARLC; not fully specified; ends and bridges not checked; UniProt P01348 25-56; P01348 161-182, looked up) [reference compound]		non-parallel response

From patent US4835251A, “Method of chain combination” (Genetech, Inc., priority 1986, dated 1989)
